This note sets out measurements from patent US20260062412A1, “NITROGEN-CONTAINING HETEROCYCLIC COMPOUND HAVING MYT1 INHIBITORY ACTIVITY” (CHUGAI SEIYAKU KABUSHIKI KAISHA, priority 2023, published 2026).

The target in the assay is MYT1 protein (Homo sapiens (Human), UniProt Q99640). As to the kind of experiment: Test for binding to ATP binding site of MYT1 (Kinase Tracer 178 / Eu-Anti-GST antibody TR-FRET). Particulars: ATP binding site of MYT1, 30 minutes at room temperature. The method, then:
The binding capacity of each compound to the ATP binding site of MYT1 Kinase protein was evaluated. 5× Kinase Buffer A (manufactured by Thermo Fisher Scientific Inc., PV3189) was diluted to 5 times with Milli-Q water, thereby preparing 1× Kinase Buffer. Using 1× Kinase Buffer, MYT1 protein (manufactured by Carna Biosciences, Inc.) was diluted to a concentration of 0.005 μM and Eu-Anti-GST Antibody was diluted to a concentration of 1 μM. […] To a 96 well-plate, 2.5 μL of a compound diluted with DMSO was added. […] The mixture was well mixed and then allowed to stand at room temperature for 30 minutes. Thereafter, fluorescence wavelengths of 665 nm and 615 nm generated by irradiation with excitation light of 340 nm were detected using Envision (manufactured by PerkinElmer). The proportion of Tracer bound to MYT1 protein was calculated for every condition by dividing the intensity at the fluorescence wavelength of 665 nm by the intensity at the fluorescence wavelength of 615 nm.
In general terms: Time-resolved FRET reads energy transfer from a long-lived donor to a nearby acceptor.

The IC50 is the midpoint of a concentration-inhibition curve. A low value points to greater potency in that assay.

Sequence of MYT1 protein (Q99640 whole entry): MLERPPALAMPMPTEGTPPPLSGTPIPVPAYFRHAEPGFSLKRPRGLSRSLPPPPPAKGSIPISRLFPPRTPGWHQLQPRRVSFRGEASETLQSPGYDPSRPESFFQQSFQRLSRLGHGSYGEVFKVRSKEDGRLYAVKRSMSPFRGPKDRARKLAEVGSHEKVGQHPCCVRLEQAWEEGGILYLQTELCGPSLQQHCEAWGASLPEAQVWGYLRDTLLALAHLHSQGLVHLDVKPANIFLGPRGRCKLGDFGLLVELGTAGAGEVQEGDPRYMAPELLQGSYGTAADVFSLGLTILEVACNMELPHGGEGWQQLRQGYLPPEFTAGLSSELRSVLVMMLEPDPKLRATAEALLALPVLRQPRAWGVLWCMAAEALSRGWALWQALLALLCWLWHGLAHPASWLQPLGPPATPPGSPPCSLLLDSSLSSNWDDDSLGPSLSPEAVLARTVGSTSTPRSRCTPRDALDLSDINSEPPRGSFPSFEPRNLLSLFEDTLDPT

Compound `Nc1c(-c2ccc(Cl)c3[nH]ncc23)c2cc(C3CCN(C4COC4)CC3)ccc2[nH]c1=O` [Compound A36, 3-Amino-4-(7-chloro-1H-indazol-4-yl)-6-[1-(oxetane-3-yl)piperidin-4-yl]-1H-quinolin-2-one] yielded an IC50 of 18 nM.
In turn, `Nc1c(-c2ccc(Cl)c3[nH]ncc23)c2cc(C(=O)NC3CC3)ccc2[nH]c1=O` [Compound A37, 3-Amino-4-(7-chloro-1H-indazol-4-yl)-N-cyclopropyl-2-oxo-1H-quinoline-6-carboxamide] yielded an IC50 of 5.6 nM. This IC50 is about 3.2-fold lower than that of the compound before.
For `Nc1c(-c2ccc(Cl)c3[nH]ncc23)c2cc(C(=O)N3CCOCC3)ccc2[nH]c1=O` [Compound A38, 3-Amino-4-(7-chloro-1H-indazol-4-yl)-6-(morpholine-4-carbonyl)-1H-quinolin-2-one] the value was 20 nM; for `CN1CC(c2ccc3[nH]c(=O)c(N)c(-c4ccc(Cl)c5[nH]ncc45)c3c2)C1` [Compound A39, 3-Amino-4-(7-chloro-1H-indazol-4-yl)-6-(1-methylazetidin-3-yl)-1H-quinolin-2-one], 23 nM.
The result for `Nc1c(-c2ccc(Cl)c3[nH]ncc23)c2ccc(Cl)cc2[nH]c1=O` [Compound A40, 3-Amino-7-chloro-4-(7-chloro-1H-indazol-4-yl)-1H-quinolin-2-one] reads 8.6 nM; that for `COc1cccc(-c2c(N)c(=O)[nH]c3ccc(Cl)cc23)c1` [Compound A42, 3-Amino-6-chloro-4-(3-methoxyphenyl)-1H-quinolin-2-one], 450 nM; that for `Nc1c(-c2cccc3[nH]ncc23)c2cc(Cl)ccc2[nH]c1=O` [Compound A43, 3-Amino-6-chloro-4-(1H-indazol-4-yl)-1H-quinolin-2-one], 48 nM.
Regarding `Nc1c(-c2ccncc2)c2cc(Cl)ccc2[nH]c1=O` [Compound A44, 3-Amino-6-chloro-4-pyridin-4-yl-1H-quinolin-2-one], the IC50 is 5000 nM.
The result for `Nc1c(-c2cccnc2)c2cc(Cl)ccc2[nH]c1=O` [Compound A45, 3-Amino-6-chloro-4-pyridin-3-yl-1H-quinolin-2-one] reads 5000 nM; that for `CS(=O)(=O)Nc1cccc(-c2c(N)c(=O)[nH]c3ccc(Cl)cc23)c1` [Compound A46, N-[3-(3-amino-6-chloro-2-oxo-1H-quinolin-4-yl)phenyl]methanesulfonamide], 5900 nM.
For `Nc1cc(-c2c(N)c(=O)[nH]c3ccc(Cl)cc23)ccn1` [Compound A47, 3-Amino-4-(2-aminopyridin-4-yl)-6-chloro-1H-quinolin-2-one] the value was 3300 nM; for `Nc1c(-c2ccc3nc[nH]c3c2)c2cc(Cl)ccc2[nH]c1=O` [Compound A48, 3-Amino-4-(3H-benzimidazol-5-yl)-6-chloro-1H-quinolin-2-one], 5300 nM.
For `Nc1c(-c2ccc3cn[nH]c3c2)c2cc(Cl)ccc2[nH]c1=O` [Compound A49, 3-Amino-6-chloro-4-(1H-indazol-6-yl)-1H-quinolin-2-one] the value was 790 nM; for `Nc1c(-c2cccc(OC(F)F)c2)c2cc(Cl)ccc2[nH]c1=O` [Compound A50, 3-Amino-6-chloro-4-[3-(difluoromethoxy)phenyl]-1H-quinolin-2-one], 5800 nM.
As to `Nc1c(-c2cccc(C(F)F)c2)c2cc(Cl)ccc2[nH]c1=O` [Compound A51, 3-Amino-6-chloro-4-[3-(difluoromethyl)phenyl]-1H-quinolin-2-one], the half-maximal inhibitory concentration (IC50) was determined as 2700 nM.
For `Cn1ccc(-c2c(N)c(=O)[nH]c3ccc(Cl)cc23)cc1=O` [Compound A52, 3-Amino-6-chloro-4-(1-methyl-2-oxopyridin-4-yl)-1H-quinolin-2-one] the value was 4400 nM; for `Nc1c(-c2cccc3[nH]ccc23)c2cc(Cl)ccc2[nH]c1=O` [Compound A53, 3-Amino-6-chloro-4-(1H-indol-4-yl)-1H-quinolin-2-one], 980 nM.
For `Cc1cc(-c2c(N)c(=O)[nH]c3ccc(Cl)cc23)c2cn[nH]c2c1` [Compound A55, 3-Amino-6-chloro-4-(6-methyl-1H-indazol-4-yl)-1H-quinolin-2-one] the value was 480 nM; for `Nc1c(-c2cc(Cl)cc3[nH]ncc23)c2cc(Cl)ccc2[nH]c1=O` [Compound A58, 3-Amino-6-chloro-4-(6-chloro-1H-indazol-4-yl)-1H-quinolin-2-one], 360 nM; for `Cc1n[nH]c2cccc(-c3c(N)c(=O)[nH]c4ccc(Cl)cc34)c12` [Compound A62, 3-Amino-6-chloro-4-(3-methyl-1H-indazol-4-yl)-1H-quinolin-2-one], 3900 nM.
For `Cc1ccc2[nH]ncc2c1-c1c(N)c(=O)[nH]c2ccc(Cl)cc12` [Compound A63, 3-Amino-6-chloro-4-(5-methyl-1H-indazol-4-yl)-1H-quinolin-2-one] the value was 710 nM; for `Nc1c(-c2cccc(O)c2)c2cc(C3CC3)ccc2[nH]c1=O` [Compound A65, 3-Amino-6-cyclopropyl-4-(3-hydroxyphenyl)-1H-quinolin-2-one], 190 nM; for `Nc1c(-c2cccc(O)c2)c2ccccc2[nH]c1=O` [Compound A66, 3-Amino-4-(3-hydroxyphenyl)-1H-quinolin-2-one], 380 nM.
`Nc1c(-c2c(F)ccc3[nH]ncc23)c2cc(Cl)ccc2[nH]c1=O` [Compound A67, 3-Amino-6-chloro-4-(5-fluoro-1H-indazol-4-yl)-1H-quinolin-2-one] had a half-maximal inhibitory concentration (IC50) of 130 nM.
The compound `Nc1c(-c2cc[nH]c(=O)c2)c2cc(Cl)ccc2[nH]c1=O` [Compound A68, 3-Amino-6-chloro-4-(2-oxo-1H-pyridin-4-yl)-1H-quinolin-2-one] gave an IC50 of 8000 nM. Compared with the last compound, the IC50 is about 62-fold higher.
The result for `Nc1nccc(-c2c(N)c(=O)[nH]c3ccc(Cl)cc23)n1` [Compound A69, 3-Amino-4-(2-aminopyrimidin-4-yl)-6-chloro-1H-quinolin-2-one] reads 2500 nM.
For `Nc1c(-c2ccccc2)c2ccccc2[nH]c1=O` [Compound A70, 3-Amino-4-phenyl-1H-quinolin-2-one] the value was 6200 nM; for `Nc1c(N2CCCC(CO)C2)c2cc(Br)ccc2[nH]c1=O` (centres unmarked) [Compound A71, 3-Amino-6-bromo-4-[3-(hydroxymethyl)piperidin-1-yl]-1H-quinolin-2-one 2,2,2-trifluoroacetate], 1400 nM; for `Nc1c(-c2ccc(Cl)c3[nH]ncc23)c2cc(OCC3(F)CC3)c(F)cc2[nH]c1=O` [Compound A72, 3-Amino-4-(7-chloro-1H-indazol-4-yl)-7-fluoro-6-[(1-fluorocyclopropyl)methoxy]-1H-quinolin-2-one], 96 nM.
`COc1cccc(-c2c(N)c(=O)[nH]c3c2ccc2ccccc23)c1` [Compound B1, 3-Amino-4-(3-methoxyphenyl)-1H-benzo[h]quinolin-2-one] registered an IC50 of 5600 nM.
For `Nc1c(-c2cccc(O)c2)c2cc(Br)c3ccccc3c2[nH]c1=O` [Compound B4, 3-Amino-6-bromo-4-(3-hydroxyphenyl)-1H-benzo[h]quinolin-2-one], the IC50 is 27 nM.
For `Nc1c(-c2cccc(O)c2)c2cc(-c3ccccc3)c3ccccc3c2[nH]c1=O` [Compound B5, 3-Amino-4-(3-hydroxyphenyl)-6-phenyl-1H-benzo[h]quinolin-2-one] the value was 420 nM.
Compound `Cc1cc2c(-c3cccc(O)c3)c(N)c(=O)[nH]c2c2ccccc12` [Compound B6, 3-Amino-4-(3-hydroxyphenyl)-6-methyl-1H-benzo[h]quinolin-2-one] showed an IC50 of 7 nM.
In the case of `Nc1c(-c2cccc(O)c2)c2cc(Cl)c3ccccc3c2[nH]c1=O` [Compound B8, 3-Amino-6-chloro-4-(3-hydroxyphenyl)-1H-benzo[h]quinolin-2-one], the IC50 stood at 12 nM.
The result for `Nc1c(-c2ccc(F)c3[nH]ncc23)c2cc(I)c3ccc(Cl)cc3c2[nH]c1=O` [Compound B9, 3-Amino-9-chloro-4-(7-fluoro-1H-indazol-4-yl)-6-iodo-1H-benzo[h]quinolin-2-one] reads 120 nM; that for `Nc1c(-c2ccc(F)c3[nH]ncc23)c2cc(C3CC3)c3ccc(Cl)cc3c2[nH]c1=O` [Compound B10, 3-Amino-9-chloro-6-cyclopropyl-4-(7-fluoro-1H-indazol-4-yl)-1H-benzo[h]quinolin-2-one], 36 nM; that for `Nc1c(-c2ccc(F)c3[nH]ncc23)c2ccc3ccc(Cl)cc3c2[nH]c1=O` [Compound B11, 3-Amino-9-chloro-4-(7-fluoro-1H-indazol-4-yl)-1H-benzo[h]quinolin-2-one], 30 nM.
For `Cc1cc2c(-c3ccc(F)c4[nH]ncc34)c(N)c(=O)[nH]c2c2cc(Cl)ccc12` [Compound B12, 3-Amino-9-chloro-4-(7-fluoro-1H-indazol-4-yl)-6-methyl-1H-benzo[h]quinolin-2-one] the value was 20 nM.
For `Nc1c(-c2ccc(F)c3[nH]ncc23)c2cc(I)c3cc(Cl)ccc3c2[nH]c1=O` [Compound B13, 3-Amino-8-chloro-4-(7-fluoro-1H-indazol-4-yl)-6-iodo-1H-benzo[h]quinolin-2-one] the value was 85 nM; for `Nc1c(-c2ccc(F)c3[nH]ncc23)c2cc(C3CC3)c3cc(Cl)ccc3c2[nH]c1=O` [Compound B14, 3-Amino-8-chloro-6-cyclopropyl-4-(7-fluoro-1H-indazol-4-yl)-1H-benzo[h]quinolin-2-one], 18 nM.
Compound `Cc1cc2c(-c3ccc(F)c4[nH]ncc34)c(N)c(=O)[nH]c2c2ccc(Cl)cc12` [Compound B15, 3-Amino-8-chloro-4-(7-fluoro-1H-indazol-4-yl)-6-methyl-1H-benzo[h]quinolin-2-one] showed an IC50 of 8.6 nM.
